Numbering of substitutions follows the chain as printed. In names and notes the source's numbering stands. Several values for one entry are separate records, joined by “and”; a condition that tells them apart may be missing. Equal values may be shown once. Read-outs that look alike come from different tables or passages of the source.
Tests used:
GAC [1] = target: T1, GAC (Mus musculus, UniProt D3Z7P3); experiment: biochemical
T1 sequence (D3Z7P3 73-603 isoform D3Z7P3-2): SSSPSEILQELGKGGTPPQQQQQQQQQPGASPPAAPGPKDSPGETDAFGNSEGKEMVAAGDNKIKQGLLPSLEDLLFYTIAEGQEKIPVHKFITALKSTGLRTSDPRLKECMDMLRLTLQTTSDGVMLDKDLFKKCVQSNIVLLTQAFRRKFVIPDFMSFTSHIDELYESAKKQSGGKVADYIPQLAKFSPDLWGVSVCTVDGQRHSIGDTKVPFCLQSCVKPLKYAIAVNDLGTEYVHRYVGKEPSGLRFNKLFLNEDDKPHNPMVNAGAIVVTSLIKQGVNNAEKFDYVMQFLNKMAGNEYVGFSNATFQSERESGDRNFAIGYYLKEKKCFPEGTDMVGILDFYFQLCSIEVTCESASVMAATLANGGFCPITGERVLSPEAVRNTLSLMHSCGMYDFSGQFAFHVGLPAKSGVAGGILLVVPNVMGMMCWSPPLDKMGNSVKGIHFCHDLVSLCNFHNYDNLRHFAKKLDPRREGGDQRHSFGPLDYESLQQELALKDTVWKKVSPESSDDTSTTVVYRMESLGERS

GACF327W [2] = target: T2, GACF327W (Mus musculus, UniProt D3Z7P3, F327W); experiment: biochemical; conditions: KD from fluorescence quenching of the GACF327W mutant, 100 nM GACF327W; fit to a bimolecular interaction equation
T2 sequence (D3Z7P3 73-603 isoform D3Z7P3-2 F327W): T1 sequence (D3Z7P3 73-603 isoform D3Z7P3-2) with F255W

GAC tetramers = target: T3, GAC tetramers (Mus musculus, UniProt D3Z7P3); conditions: for FRET signal (GAC tetramer formation): 25 nM 488-labeled GAC, 75 nM QSY9-GAC; for reversibility of bound GAC tetramers: after addition of excess unlabeled GAC subunits
T3 sequence (D3Z7P3 73-603 isoform D3Z7P3-2): T1 sequence (D3Z7P3 73-603 isoform D3Z7P3-2)

GACF327W [3] = target: T2, GACF327W; conditions: for enhancement of the tryptophan fluorescence of the F327W mutant: addition of anionic activator, 50 mM anion, 400 nM F327W in FIG. 10A
GAC [4] = target: T1, GAC; experiment: Real-time NADH fluorescence assay of GAC activity; type: biochemical; parameters: residues 73-603) was cloned into a pET28a vector; His tag with thrombin cleavage site (N); made in house; conditions: 1 μM inhibitor, 10 nM GAC, 20 mM glutamine, 100 mM HPO4^2−
From the text: FIG. 4A is a spectra of real-time NADH assays of GAC activity, in which the increased NADH fluorescence (in arbitrary units (AU)) results from the coupled reaction where GAC catalyzes glutamate production, and GDH converts glutamate to α-ketoglutarate and NAD to NADH. […] FIG. 4B is a graph of relative glutaminase activity. […] Error bars represent the standard deviation of three independent experiments.

GAC [5] = target: T1, GAC; conditions: for Kd: read-out: KD values from glutaminase activity with increasing concentrations of anion, 50 nM WT GAC, allosteric activation
WT GAC = target: T4, WT GAC (Mus musculus, UniProt D3Z7P3); conditions: 5 mg/ml WT GAC; 50 mM anion in the running buffer
T4 sequence (D3Z7P3 73-603 isoform D3Z7P3-2): T1 sequence (D3Z7P3 73-603 isoform D3Z7P3-2)

[6] = Catalytic properties of GAC proteins (phosphate-stimulated glutaminase activity); type: biochemical, mouse

O=C(Cc1cccc(OC(F)(F)F)c1)Nc1ccc(CCCCc2nnc(NC(=O)Cc3ccccn3)s2)nn1 [CB-839]
IC50 (GAC [1]): 0.023 ± 0.001 µM
Kd (GACF327W [2]): 0.034 µM and 0.03 µM
FRET signal (GAC tetramer formation) (GAC tetramers; 500 nM inhibitor): rapidly increases the FRET signal
reversibility of bound GAC tetramers (GAC tetramers): resistant to dissociation
change in tryptophan fluorescence of GACF327W upon addition of inhibitor (GACF327W [3]; 1 μM BPTES in FIG. 6B, increasing concentrations in FIGS. 8A-B): dose-dependent quenching
binding kinetics (comparison) (GACF327W [3]; real-time F327W fluorescence): slower binding kinetics than BPTES
inhibition of phosphate-stimulated GAC activity (initial rate analysis) (GAC [4]): stronger inhibition

O=P(O)(O)O [inorganic phosphate]
Kd (GAC [5]): 20600 ± 400 µM
FRET signal (GAC tetramer formation) (GAC tetramers; 100 mM anion): rapidly increases the FRET signal
reversibility of bound GAC tetramers (GAC tetramers): readily reversible
oligomer size from molecular weight distribution (WT GAC): greater than 32 mers
enhancement of the tryptophan fluorescence of the F327W mutant (GACF327W [3]): 25%

O=S(=O)(O)O [sulfate]
Kd (GAC [5]): 36400 ± 3000 µM
effectiveness in activating GAC relative to phosphate (GAC [5]; relative to phosphate (HPO4^2−)): −50%
FRET signal (GAC tetramer formation) (GAC tetramers; 100 mM anion): rapidly increases the FRET signal
reversibility of bound GAC tetramers (GAC tetramers): readily reversible
enhancement of the tryptophan fluorescence of the F327W mutant (GACF327W [3]): 15%

B1: GACF327W: mutant mouse GLS protein (GAC) with phenylalanine to tryptophan substitution at position 327 (protein)
chain: MMRLRGSAMLRELLLRPPAAVGAVLRRAQPLGTLCRRPRGGSRPTAGLVAAARLHPWWGGGGRAKGPGAGGLSSSPSEILQELGKGGTPPQQQQQQQQQPGASPPAAPGPKDSPGETDAFGNSEGKEMVAAGDNKIKQGLLPSLEDLLFYTIAEGQEKIPVHKFITALKSTGLRTSDPRLKECMDMLRLTLQTTSDGVMLDKDLFKKCVQSNIVLLTQAFRRKFVIPDFMSFTSHIDELYESAKKQSGGKVADYIPQLAKFSPDLWGVSVCTVDGQRHSIGDTKVPFCLQSCVKPLKYAIAVNDLGTEYVHRYVGKEPSGLRFNKLWLNEDDKPHNPMVNAGAIVVTSLIKQGVNNAEKFDYVMQFLNKMAGNEYVGFSNATFQSERESGDRNFAIGYYLKEKKCFPEGTDMVGILDFYFQLCSIEVTCESASVMAATLANGGFCPITGERVLSPEAVRNTLSLMHSCGMYDFSGQFAFHVGLPAKSGVAGGILLVVPNVMGMMCWSPPLDKMGNSVKGIHFCHDLVSLCNFHNYDNLRHFAKKLDPRREGGDQRHSFGPLDYESLQQELALKDTVWKKVSPESSDDTSTTVVYRMESLGERS
modifications: Mouse GAC with F327W substitution
Km [6]: 15 ± 1.7 mM
Vmax [6]: 435 ± 19 µmol/min

B2: WT GAC: recombinant wild-type mouse glutaminase C, NP_001106854.1, residues 73-603 (protein)
chain: T1 sequence (D3Z7P3 73-603 isoform D3Z7P3-2)
modifications: left off: small tags and cut ends
Km [6]: 16.4 ± 0.4 mM
Vmax [6]: 453 ± 8 µmol/min
